From patent US8466166B2, “Benzimidazole derivatives as selective acid pump inhibitors” (Raqualia Pharma Inc., priority 2006, dated 2013)
pIC50: −log10 of the molar value.

target: T1, porcine gastric H+/K+-ATPase (Sus scrofa, UniProt P19156); experiment: Ion-leaky porcine gastric H+/K+-ATPase inhibition; format: biochemical; conditions: ion-leaky lyophilized porcine gastric vesicles, 5 mM KCl, pH 6.4, 37° C., 30 minutes; read-out: IC50 values of the inhibitory activity
T1 construct: The gastric vesicles were collected from interface on 0.25 M sucrose layer containing 7% Ficoll; from tissue; host or cells: mucous membrane of fresh porcine stomachs (gastric vesicles)
T1 sequence (P19156 2-1034 limits assumed): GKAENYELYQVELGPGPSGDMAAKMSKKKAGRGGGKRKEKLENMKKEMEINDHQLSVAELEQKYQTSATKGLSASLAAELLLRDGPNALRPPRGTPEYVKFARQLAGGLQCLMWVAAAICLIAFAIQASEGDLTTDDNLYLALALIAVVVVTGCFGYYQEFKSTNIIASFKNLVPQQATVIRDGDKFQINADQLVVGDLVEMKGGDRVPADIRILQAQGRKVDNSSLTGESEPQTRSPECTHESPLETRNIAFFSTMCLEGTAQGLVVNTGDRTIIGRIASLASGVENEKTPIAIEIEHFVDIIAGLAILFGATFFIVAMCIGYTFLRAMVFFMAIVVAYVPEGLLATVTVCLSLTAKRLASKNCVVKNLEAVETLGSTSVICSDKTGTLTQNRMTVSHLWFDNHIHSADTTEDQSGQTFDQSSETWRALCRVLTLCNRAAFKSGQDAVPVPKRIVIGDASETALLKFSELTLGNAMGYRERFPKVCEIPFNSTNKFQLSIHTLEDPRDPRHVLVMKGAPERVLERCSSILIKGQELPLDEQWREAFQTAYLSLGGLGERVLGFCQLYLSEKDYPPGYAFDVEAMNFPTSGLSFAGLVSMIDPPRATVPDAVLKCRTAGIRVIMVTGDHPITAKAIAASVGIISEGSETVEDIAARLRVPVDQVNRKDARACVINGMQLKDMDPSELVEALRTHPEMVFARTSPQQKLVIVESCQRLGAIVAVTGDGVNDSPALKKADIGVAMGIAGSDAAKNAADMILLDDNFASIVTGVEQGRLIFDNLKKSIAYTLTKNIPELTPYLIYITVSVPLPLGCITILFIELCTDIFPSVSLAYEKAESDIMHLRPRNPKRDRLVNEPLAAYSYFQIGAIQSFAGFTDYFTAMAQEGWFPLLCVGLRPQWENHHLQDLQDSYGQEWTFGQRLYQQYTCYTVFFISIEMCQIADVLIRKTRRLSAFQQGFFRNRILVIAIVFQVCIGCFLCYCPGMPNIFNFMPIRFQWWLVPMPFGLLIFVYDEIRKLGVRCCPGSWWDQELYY
T1 sequence (P18434 whole entry partner): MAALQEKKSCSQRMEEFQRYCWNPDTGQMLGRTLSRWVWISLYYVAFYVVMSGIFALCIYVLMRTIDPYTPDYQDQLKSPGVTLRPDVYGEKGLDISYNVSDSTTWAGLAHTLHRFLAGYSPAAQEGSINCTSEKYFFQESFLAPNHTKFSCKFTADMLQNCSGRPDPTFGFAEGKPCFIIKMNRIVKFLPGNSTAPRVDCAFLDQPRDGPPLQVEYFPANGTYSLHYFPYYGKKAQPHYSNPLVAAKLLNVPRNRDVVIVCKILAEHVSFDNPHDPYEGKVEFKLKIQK
Experimental: The porcine gastric vesicles for Porcine gastric H^+/K^+-ATPase inhibition assays were prepared from mucous membrane in fresh porcine stomachs by homogenization with a tight-fitted polytetrafluoroethylene (Teflone®) homogenizer in 0.25 M sucrose at 4° C. The crude pellet was removed with centrifugation at 20,000 g for 30 min. Then supernatant was centrifuged at 100,000 g for 30 min. The resulting pellet was re-suspended in 0.25 M sucrose, and then subjected to density gradient centrifugation at 132,000 g for 90 min. The gastric vesicles were collected from interface on 0.25 M sucrose layer containing 7% Ficoll™ PM400 (Amersham Biosciences). This procedure was performed in a cold room.
Ion-leaky porcine gastric H^+/K^+-ATPase inhibition was measured according to the modified method described in Biochemical Pharmacology, 1988, 37, 2231-2236.
The isolated vesicles were lyophilized, and then kept in deep-freezer until use. For enzyme assay, lyophilized vesicles were reconstituted with 3 mM MgSO4 containing 40 mM Bis-tris (pH 6.4 at 37° C.).
Enzyme reaction was performed incubating 5 mM KCl, 3 mM Na2ATP, 3 mM MgSO4 and 1.0 μg of reconstituted vesicles for 30 minutes at 37° C. in a final 60 μl of reaction mixture (40 mM Bis-tris, pH 6.4) with or without the test compound. Enzyme reaction was stopped by adding 10% sodium dodecyl sulphate (SDS). Released inorganic phosphate from ATP was detected by incubation with mixture of 1 part of 35 mM ammonium molybdate tetrahydrate in 15 mM Zinc acetate hydrate and 4 parts of 10% ascorbic acid (pH 5.0), resulting in phosphomolybdate, which has optical density at 750 nm.

Row | Structure (SMILES) | pIC50
1 | COCCn1c(C)nc2cc(C(=O)N(C)C)c3c(c21)OC(c1ccccc1)CC3 (racemic) [Example 1, 1-(2-Methoxyethyl)-N,N,2-trimethyl-8-phenyl-1,6,7,8-tetrahydrochromeno[7,8-d]imidazole-5-carboxamide] | 7.01
2 | COCCn1c(C)nc2cc(C(=O)N(C)C)c3c(c21)OC(c1ccc(F)cc1)CC3 (racemic) [Example 5, 8-(4-Fluorophenyl)-1-(2-methoxyethyl)-N,N,2-trimethyl-1,6,7,8-tetrahydrochromeno[7,8-d]imidazole-5-carboxamide] | 7.06
3 | COCCn1c(C)nc2cc(C(=O)N(C)CCO)c3c(c21)OC(c1ccc(F)cc1F)CC3 (racemic) [Example 11, 8-(2,4-Difluorophenyl)-N-(2-hydroxyethyl)-1-(2-methoxyethyl)-N,2-dimethyl-1,6,7,8-tetrahydrochromeno[7,8-d]imidazole-5-carboxamide] | 6.68
4 | COCCn1c(C)nc2cc(C(=O)N3CCC3)c3c(c21)OC(c1ccccc1)CC3 (racemic) [Example 15, 5-(Azetidin-1-ylcarbonyl)-1-(2-methoxyethyl)-2-methyl-8-phenyl-1,6,7,8-tetrahydrochromeno[7,8-d]imidazole] | 6.70
5 | COCCn1c(C)nc2cc(C(=O)N(C)C)c3c(c21)OC(c1ccccc1)CC3 (single isomer, unassigned; (+)) [Example 2, (+)-1-(2-Methoxyethyl)-N,N,2-trimethyl-8-phenyl-1,6,7,8-tetrahydrochromeno[7,8-d]imidazole-5-carboxamide] | 6.28
6 | COCCn1c(C)nc2cc(C(=O)N(C)C)c3c(c21)OC(c1ccc(F)cc1)CC3 (single isomer, unassigned; (+)) [Example 6, (+)-8-(4-Fluorophenyl)-1-(2-methoxyethyl)-N,N,2-trimethyl-1,6,7,8-tetrahydrochromeno[7,8-d]imidazole-5-carboxamide] | 6.64
7 | COCCn1c(C)nc2cc(C(=O)N(C)CCO)c3c(c21)OC(c1ccc(F)cc1F)CC3 (single isomer, unassigned; (+)) [Example 13, (+)-8-(2,4-Difluorophenyl)-N-(2-hydroxyethyl)-1-(2-methoxyethyl)-N,2-dimethyl-1,6,7,8-tetrahydrochromeno[7,8-d]imidazole-5-carboxamide] | 6.47
8 | COCCn1c(C)nc2cc(C(=O)N3CCC3)c3c(c21)OC(c1ccccc1)CC3 (single isomer, unassigned; (+)) [Example 17, (+)-5-(Azetidin-1-ylcarbonyl)-1-(2-methoxyethyl)-2-methyl-8-phenyl-1,6,7,8-tetrahydrochromeno[7,8-d]imidazole] | 6.00
9 | COCCn1c(C)nc2cc(C(=O)N(C)C)c3c(c21)OC(c1ccccc1)CC3 (single isomer, unassigned; (-)) [Example 3, (−)-1-(2-Methoxyethyl)-N,N,2-trimethyl-8-phenyl-1,6,7,8-tetrahydrochromeno[7,8-d]imidazole-5-carboxamide] | 7.17
10 | COCCn1c(C)nc2cc(C(=O)N(C)C)c3c(c21)OC(c1ccc(F)cc1)CC3 (single isomer, unassigned; (-)) [Example 7, (−)-8-(4-Fluorophenyl)-1-(2-methoxyethyl)-N,N,2-trimethyl-1,6,7,8-tetrahydrochromeno[7,8-d]imidazole-5-carboxamide] | 7.42
11 | COCCn1c(C)nc2cc(C(=O)N(C)CCO)c3c(c21)OC(c1ccc(F)cc1F)CC3 (single isomer, unassigned; (-)) [Example 12, (−)-8-(2,4-Difluorophenyl)-N-(2-hydroxyethyl)-1-(2-methoxyethyl)-N,2-dimethyl-1,6,7,8-tetrahydrochromeno[7,8-d]imidazole-5-carboxamide] | 7.05
12 | COCCn1c(C)nc2cc(C(=O)N3CCC3)c3c(c21)OC(c1ccccc1)CC3 (single isomer, unassigned; (-)) [Example 16, (−)-5-(Azetidin-1-ylcarbonyl)-1-(2-methoxyethyl)-2-methyl-8-phenyl-1,6,7,8-tetrahydrochromeno[7,8-d]imidazole] | 7.13
13 | COCCn1c(C)nc2cc(C(=O)N(C)CCO)c3c(c21)OC(c1ccccc1)CC3 (centres unmarked) [Example 4, N-(2-Hydroxyethyl)-1-(2-methoxyethyl)-N,2-dimethyl-8-phenyl-1,6,7,8-tetrahydrochromeno[7,8-d]imidazole-5-carboxamide] | 6.72
14 | Cc1nc2cc(C(=O)N(C)C)c3c(c2n1CCCO)OC(c1ccc(F)cc1)CC3 (centres unmarked) [Example 8, 8-(4-Fluorophenyl)-1-(3-hydroxypropyl)-N,N,2-trimethyl-1,6,7,8-tetrahydrochromeno[7,8-d]imidazole-5-carboxamide] | 6.47
15 | Cc1nc2cc(C(=O)N(C)C)c3c(c2n1Cc1ccon1)OC(c1ccc(F)cc1)CC3 (centres unmarked) [Example 9, 8-(4-Fluorophenyl)-1-(isoxazol-3-ylmethyl)-N,N,2-trimethyl-1,6,7,8-tetrahydrochromeno[7,8-d]imidazole-5-carboxamide] | 6.46
16 | [2H]C([2H])([2H])N(C(=O)c1cc2nc(C)n(CCOC)c2c2c1CCC(c1ccccc1)O2)C([2H])([2H])[2H] (centres unmarked) [Example 10, N,N-Di[^2H3]methyl-1-(2-methoxyethyl)-2-methyl-8-phenyl-1,6,7,8-tetrahydrochromeno[7,8-d]imidazole-5-carboxamide] | 7.00
17 | COCCn1c(C)nc2cc(C(=O)N3CC(F)C3)c3c(c21)OC(c1ccccc1)CC3 (centres unmarked) [Example 14, 5-[(3-Fluoroazetidin-1-yl)carbonyl]-1-(2-methoxyethyl)-2-methyl-8-phenyl-1,6,7,8-tetrahydrochromeno[7,8-d]imidazole] | 6.57
